SMILES strings stand for the structures. Where two headings read alike, the source gives them in different places.

This is an account of results in patent US20120157439A1, “RAF INHIBITOR COMPOUNDS AND METHODS OF USE THEREOF” (GENENTECH, INC., priority 2009, published 2012).

For this assay, the target named is T1, V600E full-length B-Raf (Homo sapiens, UniProt P15056, V600E).
T1 construct: 1 μM FSBA-MEK and 20 nM V600E full-length B-Raf; made in house; host or cells: sf9 insect cells (baculovirus)
Kind of assay: B-Raf IC50 Assay (B-RAF V600E inhibition assay, Example A). The assay is classed as biochemical. The method in brief:
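Full-length V600E B-Raf (20 nM, from Sf9 baculovirus) was preincubated 15 min with 1 μM FSBA-modified wild-type MEK in pH 7.2 Pipes/KCl/MgCl2 buffer, then started with 4 μM ATP plus [γ-33P]ATP. After 60 min at 22 °C, TCA-quenched product was filter-captured and 33P incorporation counted by scintillation.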

Where [1] appears, read: B-Raf V600E assay of Example A: less than about 1 μM, read-out: IC50.
The mark [2] stands for this setting: incorporation of radio labeled phosphate from [γ-33P]ATP into FSBA-modified wild-type MEK, 4 μM ATP, 20 nM V600E full-length B-Raf, 60-minute incubation, 22° C., read-out: BRAF V600E IC50.
The mark [3] stands for this setting: B-Raf V600E assay of Example A: less than 100 nM, read-out: IC50.

T1 sequence (P15056 whole entry V600E): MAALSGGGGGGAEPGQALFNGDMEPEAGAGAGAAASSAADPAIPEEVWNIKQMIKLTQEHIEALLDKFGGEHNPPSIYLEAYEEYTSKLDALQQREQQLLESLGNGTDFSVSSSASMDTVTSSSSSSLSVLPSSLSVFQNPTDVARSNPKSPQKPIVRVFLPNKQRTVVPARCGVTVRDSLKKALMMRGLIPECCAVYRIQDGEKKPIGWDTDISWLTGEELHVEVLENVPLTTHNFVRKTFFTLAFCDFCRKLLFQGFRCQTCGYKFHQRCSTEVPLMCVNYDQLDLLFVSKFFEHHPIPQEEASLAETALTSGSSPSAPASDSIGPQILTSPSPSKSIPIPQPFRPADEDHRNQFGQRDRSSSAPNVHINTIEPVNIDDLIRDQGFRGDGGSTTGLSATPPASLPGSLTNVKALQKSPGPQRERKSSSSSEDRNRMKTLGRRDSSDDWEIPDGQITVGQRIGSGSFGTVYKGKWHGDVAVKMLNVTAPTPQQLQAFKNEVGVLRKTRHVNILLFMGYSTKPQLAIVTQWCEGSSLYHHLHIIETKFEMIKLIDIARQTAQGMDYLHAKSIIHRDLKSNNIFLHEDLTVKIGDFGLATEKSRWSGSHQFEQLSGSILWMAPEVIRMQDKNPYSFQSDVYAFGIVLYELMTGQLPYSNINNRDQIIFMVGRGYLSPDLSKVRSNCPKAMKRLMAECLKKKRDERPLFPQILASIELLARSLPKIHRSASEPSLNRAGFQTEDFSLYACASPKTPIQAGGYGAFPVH

In general, IC50 refers to the concentration needed to halve the response being measured. Take `CCCS(=O)(=O)Nc1ccc(F)c(NC(=O)c2snc3c(NC4CC4)ncnc23)c1F` [Example 36, 7-(Cyclopropylamino)-N-(2,6-difluoro-3-(propylsulfonamido)phenyl)isothiazolo[4,3-d]pyrimidine-3-carboxamide]: the IC50 under setting [1] was below 1000 nM and the IC50 under setting [2] was 194 nM.
Regarding `CCCS(=O)(=O)Nc1ccc(F)c(NC(=O)c2c[nH]c3c(C)ncnc23)c1F` [Example 106, 4-Methyl-5H-pyrrolo[3,2-d]pyrimidine-7-carboxylic acid [2,6-difluoro-3-(propane-1-sulfonylamino)-phenyl]-amide], the IC50 reads like this: under setting [1], below 1000 nM; under setting [2], 189 nM.
`CCCS(=O)(=O)Nc1ccc(F)c(NC(=O)c2c[nH]c3c(NOC)ncnc23)c1F` [Example 105, 4-Methoxyamino-5H-pyrrolo[2-d]pyrimidine-7-carboxylic acid [2,6-difluoro-3-(propane-1-sulfonylamino)-phenyl]-amide]: the IC50 under setting [1] was below 1000 nM and the IC50 under setting [2] came out at 112 nM.
Regarding `CCCS(=O)(=O)Nc1ccc(F)c(NC(=O)c2c[nH]c3c(NC4CC4)ncnc23)c1F` [Example 104, 4-Cyclopropylamino-5H-pyrrolo[3,2-d]pyrimidine-7-carboxylic acid [2,6-difluoro-3-(propane-1-sulfonylamino)-phenyl]-amide], the IC50 was below 100 nM under setting [3], below 1000 nM under setting [1] and 47.6 nM under setting [2].
For the molecule `CCNc1ncnc2c(C(=O)Nc3c(Cl)ccc(NS(=O)(=O)CCCF)c3Cl)csc12` [Example 83, 4-Ethylamino-thieno[3,2-d] pyrimidine-7-carboxylic acid [2,6-dichloro-3-(3-fluoro-propane-1-sulfonyl-amino)-phenyl]-amide], the IC50 runs as follows: under setting [3], below 100 nM; under setting [1], below 1000 nM; under setting [2], 0.32 nM.
On to `CCCS(=O)(=O)Nc1ccc(F)c(NC(=O)c2csc3c(N)ncnc23)c1Cl` [Example 5, 4-Amino-thieno[3,2-d] pyrimidine-7-carboxylic acid [2-chloro-6-fluoro-3-(propane-1-sulfonyl-amino)-phenyl]-amide], for which the IC50 by setting is: under setting [3], below 100 nM; under setting [1], below 1000 nM; under setting [2], 0.86 nM.
Turning to `Nc1ncnc2c(C(=O)Nc3c(Cl)ccc(NS(=O)(=O)CCCF)c3Cl)csc12` [Example 24, 4-Amino-thieno[3,2-d] pyrimidine-7-carboxylic acid [2,6-dichloro-3-(3-fluoro-propane-1-sulfonylamino)-phenyl]-amide], the IC50 under setting [3] was below 100 nM, the IC50 under setting [1] is below 1000 nM and the IC50 under setting [2] stood at 0.11 nM.
On to `CCCS(=O)(=O)Nc1ccc(Cl)c(NC(=O)c2csc3c(NCCF)ncnc23)c1Cl` [Example 74, 4-(2-Fluoro-ethylamino)-thieno[3,2-d] pyrimidine-7-carboxylic acid [2,6-dichloro-3-(propane-1-sulfonyl-amino)-phenyl]amide], for which the IC50 by setting is: under setting [3], below 100 nM; under setting [1], below 1000 nM; under setting [2], 0.5 nM.
As for `CCCS(=O)(=O)Nc1cc(F)c(F)c(NC(=O)c2csc3c(NC4CC(F)(F)C4)ncnc23)c1F` [Example 93, 4-(3,3-Difluoro-cyclobutyl-amino)-thieno[3,2-d] pyrimidine-7-carboxylic acid [2,3,6-trifluoro-5-(propane-1-sulfonyl-amino)-phenyl]-amide], the IC50 reads like this: under setting [1], below 1000 nM; under setting [2], 118 nM.
Consider `CCCS(=O)(=O)Nc1ccc(F)c(NC(=O)c2csc3c(Nc4ccccc4)ncnc23)c1F` [Example 63, 4-Phenylamino-thieno[3,2-d]pyrimidine-7-carboxylic acid [2,6-difluoro-3-(propane-1-sulfonylamino)-phenyl]-amide], for which the IC50 under setting [3] was below 100 nM, the IC50 under setting [1] is below 1000 nM and the IC50 under setting [2] was found to be 35.4 nM.
The corresponding values for `CCCS(=O)(=O)Nc1ccc(F)c(NC(=O)c2csc3c(NCCF)ncnc23)c1F` [Example 52, 4-(2-Fluoro-ethylamino)-thieno[3,2-d] pyrimidine-7-carboxylic acid [2,6-difluoro-3-(propane-1-sulfonylamino)-phenyl]-amide] are below 100 nM, below 1000 nM and 15.7 nM.
As to `CC(C)CS(=O)(=O)Nc1ccc(F)c(NC(=O)c2csc3c(N)ncnc23)c1F` [Example 19, 4-Amino-thieno[3,2-d] pyrimidine-7-carboxylic acid [2,6-difluoro-3-(2-methyl-propane-1-sulfonylamino)-phenyl]-amide], the IC50 runs as follows: under setting [3], below 100 nM; under setting [1], below 1000 nM; under setting [2], 2.6 nM.
`CCCS(=O)(=O)Nc1ccc(F)c(NC(=O)c2csc3c(NCC(C)(C)C)ncnc23)c1F` [Example 58, 4-(2,2-Dimethyl-propylamino)-thieno[3,2-d] pyrimidine-7-carboxylic acid [2,6-difluoro-3-(propane-1-sulfonylamino)-phenyl]-amide]: the IC50 under setting [1] is below 1000 nM and the IC50 under setting [2] was 902 nM.
For the molecule `CCCS(=O)(=O)Nc1ccc(F)c(NC(=O)c2cn(C)c3c(N)ncnc23)c1F` [Example 1, 4-amino-5-methyl-pyrrolo[3,2-d]pyrimidine-7-carboxylic acid[2,6-difluoro-3-(propane-1-sulfonylamino)-phenyl]-amide], the IC50 runs as follows: under setting [3], below 100 nM; under setting [1], below 1000 nM; under setting [2], 18.4 nM.
Consider `CCCS(=O)(=O)Nc1ccc(F)c(NC(=O)c2scc3c(N)ncnc23)c1F` [Example 100, 4-Amino-N-(2,6-difluoro-3-(propylsulfonamido)phenyl)thieno[3,4-d]pyrimidine-7-carboxamide], for which the IC50 under setting [3] was below 100 nM, the IC50 under setting [1] was below 1000 nM and the IC50 under setting [2] worked out at 29.8 nM.
The corresponding values for `CCCS(=O)(=O)Nc1ccc(Cl)c(NC(=O)c2csc3c(NC4CCOCC4)ncnc23)c1Cl` [Example 77, 4-(Tetrahydro-pyran-4-ylamino)-thieno[3,2-d] pyrimidine-7-carboxylic acid [2,6-dichloro-3-(propane-1-sulfonyl-amino)-phenyl]-amid] are below 100 nM, below 1000 nM and 77.5 nM.
Regarding `CCCS(=O)(=O)Nc1cc(F)c(F)c(NC(=O)c2csc3c(NC(C)C)ncnc23)c1F` [Example 91, 4-Isopropyl-amino-thieno [3,2-d] pyrimidine-7-carboxylic acid [2,3,6-trifluoro-5-(propane-1-sulfonyl-amino)-phenyl]-amide], the IC50 runs as follows: under setting [3], below 100 nM; under setting [1], below 1000 nM; under setting [2], 27.9 nM.
For the molecule `CCCS(=O)(=O)Nc1ccc(F)c(NC(=O)c2csc3c(CC)ncnc23)c1F` [Example 41, 4-Ethyl-thieno[3,2-d]pyrimidine-7-carboxylic acid [2,6-difluoro-3-(propane-1-sulfonylamino)-phenyl]-amide], the IC50 under setting [1] is below 1000 nM and the IC50 under setting [2] is 112 nM.
With `CCCS(=O)(=O)Nc1ccc(F)c(NC(=O)c2csc3c(N)ncnc23)c1F` [Example 6, 4-Amino-thieno[3,2-d] pyrimidine-7-carboxylic acid [2,6-difluoro-3-(propane-1-sulfonylamino)-phenyl]-amide], the IC50 was below 100 nM under setting [3], below 1000 nM under setting [1] and 2.89 nM under setting [2].
In the case of `Nc1ncnc2c(C(=O)Nc3c(F)ccc(NS(=O)(=O)CCCF)c3F)csc12` [Example 14, 4-Amino-thieno[3,2-d] pyrimidine-7-carboxylic acid [2,6-difluoro-3-(3-fluoro-propane-1-sulfonylamino)-phenyl]-amide], the IC50 is below 100 nM under setting [3], below 1000 nM under setting [1] and 0.6 nM under setting [2].
As for `Nc1ncnc2c(C(=O)Nc3c(F)ccc(NS(=O)(=O)c4ccco4)c3F)csc12` [Example 12, 4-Amino-thieno[3,2-d]pyrimidine-7-carboxylic acid[2,6-difluoro-3-(furan-2-sulfonylamino)-phenyl]-amide], the IC50 by setting is: under setting [3], below 100 nM; under setting [1], below 1000 nM; under setting [2], 0.22 nM.
In the case of `CCCS(=O)(=O)Nc1ccc(Cl)c(NC(=O)c2csc3c(NC#N)ncnc23)c1Cl` [Example 73, 4-Cyano-amino-thieno[3,2-d] pyrimidine-7-carboxylic acid [2,6-dichloro-3-(propane-1-sulfonyl-amino)-phenyl]amide], the IC50 under setting [3] is below 100 nM, the IC50 under setting [1] is below 1000 nM and the IC50 under setting [2] is 14 nM.
Turning to `CCS(=O)(=O)Nc1ccc(Cl)c(NC(=O)c2csc3c(N)ncnc23)c1F` [Example 3, 4-Amino-thieno[3,2-d] pyrimidine-7-carboxylic acid (6-chloro-3-ethane-sulfonylamino-2-fluoro-phenyl)-amide], the IC50 by setting is: under setting [3], below 100 nM; under setting [1], below 1000 nM; under setting [2], 3.89 nM.
In the case of `CCCS(=O)(=O)Nc1ccc(F)c(NC(=O)c2csc3c(Nc4cnn(C)c4)ncnc23)c1F` [Example 61, 4-(1-Methyl-1H-pyrazol-4-ylamino)-thieno[3,2-d] pyrimidine-7-carboxylic acid [2,6-difluoro-3-(propane-1-sulfonylamino)-phenyl]-amide], the IC50 by setting is: under setting [3], below 100 nM; under setting [1], below 1000 nM; under setting [2], 1.7 nM.
